Measurements published in patent US20130079349A1 (JANSSEN PHARMACEUTICA NV, priority 2010, published 2013).

Key:
Abeta 1-42 = experiment: Cellular αLisa assay in SKNBE2 cells, Abeta 1-42; type: cell-based; conditions: human neuroblastoma SKNBE2 expressing hAPP695, incubated for 18 hours; for IC50: Homo sapiens, SKNBE2, 18 h, read-out: Cellular αlisa assay in SKNBE2 cells Aβ42 pIC50 (converted)
Description: (§1) In two αLisa assays the levels of Abeta total and Abeta 1-42 produced and secreted into the medium of human neuroblastoma SKNBE2 cells are quantified. The assay is based on the human neuroblastoma SKNBE2 expressing the wild type Amyloid Precursor Protein (hAPP695). The compounds are diluted and added to these cells, incubated for 18 hours and then measurements of Abeta 1-42 and Abeta total are taken. Abeta total and Abeta 1-42 are measured by sandwich αLisa. αLisa is a sandwich assay using biotinylated antibody AbN/25 attached to streptavidin coated beads and antibody Ab4G8 or cAb42/26 conjugated acceptor beads for the detection of Abeta total and Abeta 1-42 respectively. In the presence of Abeta total or Abeta 1-42, the beads come into close proximity. The excitation of the donor beads provokes the release of singlet oxygen molecules that trigger a cascade of energy transfer in the acceptor beads, resulting in light emission. Light emission is measured after 1 hour incubation (excitation at […] and emission at 615 nm).
(§2) A best-fit curve is fitted by a minimum sum of squares method to the plot of %Controlmin versus compound concentration.

Abeta total = experiment: Cellular αLisa assay in SKNBE2 cells, Abeta total; type: cell-based; conditions: human neuroblastoma SKNBE2 expressing hAPP695, incubated for 18 hours; for IC50: Homo sapiens, SKNBE2, 18 h, read-out: Cellular αlisa assay in SKNBE2 cells Aβtotal pIC50 (converted)
Description: as §1, §2

BACE1 = BACE1 (Homo sapiens, UniProt P56817); experiment: Biochemical FRET based assay; conditions: recombinant BACE1 1 μg/ml, 120 minutes at room temperature, pH 5.0; read-out: Biochemical FRET based assay pIC50 (converted)
Source text: This assay is a Fluorescence Resonance Energy Transfer Assay (FRET) based assay. The substrate for this assay is an APP derived 13 amino acids peptide that contains the ‘Swedish’ Lys-Met/Asn-Leu mutation of the amyloid precursor protein (APP) beta-secretase cleavage site. This substrate also contains two fluorophores: (7-methoxycoumarin-4-yl) acetic acid (Mca) is a fluorescent donor with excitation wavelength at 320 nm and emission at 405 nm and 2,4-Dinitrophenyl (Dnp) is a proprietary quencher acceptor. […] Upon cleavage by BACE1, the fluorophore Mca is separated from the quenching group Dnp, restoring the full fluorescence yield of the donor. The increase in fluorescence is linearly related to the rate of proteolysis.
Briefly in a 384-well format recombinant BACE1 protein in a final concentration of 1 μg/ml is incubated for 120 minutes at room temperature with 10 μm substrate in incubation buffer (40 mM Citrate buffer pH 5.0, 0.04% PEG, 4% DMSO) in the absence or presence of compound. Next the amount of proteolysis is directly measured by fluorescence measurement at T=0 and T=120 (excitation at 320 nm and emission at 405 nm). Results are expressed in RFU (relative fluorescence units), as difference between T120 and T0.

Sequence of BACE1 (P56817 46-501): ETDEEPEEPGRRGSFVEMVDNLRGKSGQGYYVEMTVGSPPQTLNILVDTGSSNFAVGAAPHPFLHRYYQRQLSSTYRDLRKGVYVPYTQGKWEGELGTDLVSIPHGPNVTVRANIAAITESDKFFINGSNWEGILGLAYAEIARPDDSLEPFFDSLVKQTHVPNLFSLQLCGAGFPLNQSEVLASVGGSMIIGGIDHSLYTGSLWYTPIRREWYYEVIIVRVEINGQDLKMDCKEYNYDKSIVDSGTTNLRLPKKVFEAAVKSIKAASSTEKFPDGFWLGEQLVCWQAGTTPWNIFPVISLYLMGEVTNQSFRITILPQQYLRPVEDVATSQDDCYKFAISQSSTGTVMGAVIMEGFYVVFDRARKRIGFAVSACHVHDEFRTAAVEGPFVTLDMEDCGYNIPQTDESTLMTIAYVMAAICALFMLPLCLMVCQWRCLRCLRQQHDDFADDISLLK

IC50 (Abeta 1-42) [µM]	IC50 (Abeta total) [µM]	IC50 (BACE1) [µM]	melting point [°C]	Cellular αlisa assay in SKNBE2 cells Aβ42 pIC50 (Abeta 1-42)	Cellular αlisa assay in SKNBE2 cells Aβtotal pIC50 (Abeta total)	SMILES
0.0646	0.0275					CN1CC(N)=NC(C)(c2cccc(NC(=O)c3ccc(Cl)cn3)c2)C1=O (racemic) [Compound 3, rac-5-chloro-pyridine-2-carboxylic acid [3-(6-amino-2,4-dimethyl-3-oxo-2,3,4,5-tetrahydro-pyrazin-2-yl)-phenyl]-amide]
1.66	1.51	10.5				COc1cncc(-c2cccc(C3(C)N=C(N)CN(C)C3=O)c2)c1 (racemic) [Compound 2, rac-5-amino-3-[3-(5-methoxy-pyridin-3-yl)-phenyl]-1,3-dimethyl-3,6-dihydro-1H-pyrazin-2-one]
> 10	9.12	> 30.2	81.8			CCN1CC(N)=NC(C)(c2cc(-c3cncc(OC)c3)c(F)cc2F)C1=O (racemic) [Compound 9, rac-5-amino-3-[2,4-difluoro-5-(5-methoxy-pyridin-3-yl)-phenyl]-1-ethyl-3-methyl-3,6-dihydro-1H-pyrazin-2-one]
				<5	<5	CN1CC(N)=NC(C)(c2cccc(NC(=O)c3ccc(Cl)cn3)c2)C1=O (single isomer, unassigned) [Compound 4, (S*)-5-chloro-pyridine-2-carboxylic acid [3-(6-amino-2,4-dimethyl-3-oxo-2,3,4,5-tetrahydro-pyrazin-2-yl)-phenyl]-amide]
4.47	3.89	20.4	223.4			CN1CC(N)=NC(C)(c2cccc(-c3cncnc3)c2)C1=O (racemic) [Compound 1, rac-5-amino-1,3-dimethyl-3-(3-pyrimidin-5-yl-phenyl)-3,6-dihydro-1H-pyrazin-2-one]
1.26	1.15	7.08				Cc1cnc(C(=O)Nc2cccc(C3(C)N=C(N)CN(C)C3=O)c2)cn1 (racemic) [Compound 6, rac-5-methyl-pyrazine-2-carboxylic acid [3-(6-amino-2,4-dimethyl-3-oxo-2,3,4,5-tetrahydro-pyrazin-2-yl)-phenyl]-amide]
				7.44	7.43	CN1CC(N)=NC(C)(c2cccc(NC(=O)c3ccc(Cl)cn3)c2)C1=O (single isomer, unassigned) [Compound 5, (R*)-5-chloro-pyridine-2-carboxylic acid [3-(6-amino-2,4-dimethyl-3-oxo-2,3,4,5-tetrahydro-pyrazin-2-yl)-phenyl]-amide]
